We go through six molecules from publication PMC6858373 (Scientific Reports, 2019).

The target in data set [1] is full-length P. pyralis luciferase (Photinus pyralis, UniProt P08659, K549A/L550V/N119G/N50D/S548I). The data set is classed as cell-based. The settings on record: CC_NCI screening, normalized to on-plate 0.3% DMSO controls; for Luciferase Assay % Lum: full-length luciferase counter-screen luminescence; for Luciferase Assay Z-score: full-length luciferase counter-screen. In general terms: A counterscreen serves to expose hits that act by an unwanted route or on another target.

The next data set has as its system Clone V cells. Put plainly: CellTiter Blue (CTB) cell viability counter-screen. The settings on record: CC_NCI screening, normalized to on-plate 0.3% DMSO controls; for Toxicity Assay % Fluor: CTB cell viability fluorescence; for Toxicity Assay Z-score: CTB cell viability.
In data set [2] the target is T1, FGF14:Nav1.6 C-tail complex (Homo sapiens, UniProt Q92915+Q9UQD0).
T1 construct: polymerase chain reaction (PCR) amplification of the FGF14 open reading frame (nt 1–855); C-terminal fragment of Nav1.6 (amino acids 1763–1976) fused with CD4ΔC-tail (amino acids 1–395); expressed in transfected cells
The data set can be described thus: Split-luciferase complementation assay (LCA) in Clone V double stable HEK293 cells. The data set is classed as cell-based. The note with it: for Split Luciferase Assay % Lum Set 1 / Split Luciferase Assay %Lum Set 2 / Split Luciferase Assay Z-score Set 1 / Split Luciferase Assay Z-score Set 2 / Split Luciferase Assay %Lum Avg: CC_NCI screening; for Split Luciferase Assay % Lum Set 1 / Split Luciferase Assay %Lum Set 2: LCA luminescence, normalized to on-plate 0.3% DMSO controls (n=16 per plate); for Split Luciferase Assay % Lum Set 1 / Split Luciferase Assay Z-score Set 1: biological replicate Set 1; for Split Luciferase Assay %Lum Set 2 / Split Luciferase Assay Z-score Set 2: biological replicate Set 2; for Split Luciferase Assay Z-score Set 1 / Split Luciferase Assay Z-score Set 2: LCA, normalized to on-plate 0.3% DMSO controls; for Split Luciferase Assay %Lum Avg: average of Set 1 and Set 2, normalized to 0.3% DMSO controls.

The term IC50 denotes the midpoint of a concentration-inhibition curve.

Chain of full-length P. pyralis luciferase (P08659 whole entry N50D/N119G/S548I/K549A/L550V, looked up): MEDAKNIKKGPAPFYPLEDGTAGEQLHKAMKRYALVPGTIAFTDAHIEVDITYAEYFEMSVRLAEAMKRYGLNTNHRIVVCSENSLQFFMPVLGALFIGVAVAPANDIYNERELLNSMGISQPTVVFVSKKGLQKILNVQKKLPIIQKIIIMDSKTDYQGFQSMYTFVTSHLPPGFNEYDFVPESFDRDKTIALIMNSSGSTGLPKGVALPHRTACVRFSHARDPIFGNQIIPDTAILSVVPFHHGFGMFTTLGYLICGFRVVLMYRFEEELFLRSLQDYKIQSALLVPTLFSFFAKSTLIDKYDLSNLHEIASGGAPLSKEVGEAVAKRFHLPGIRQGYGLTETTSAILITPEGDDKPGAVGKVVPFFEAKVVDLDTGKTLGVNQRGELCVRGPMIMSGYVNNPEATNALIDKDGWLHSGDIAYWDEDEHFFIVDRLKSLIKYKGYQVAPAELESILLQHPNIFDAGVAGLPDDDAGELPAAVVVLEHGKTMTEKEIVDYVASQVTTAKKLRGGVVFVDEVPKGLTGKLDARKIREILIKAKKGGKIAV
T1 sequence (Q92915 1-252 isoform Q92915-2): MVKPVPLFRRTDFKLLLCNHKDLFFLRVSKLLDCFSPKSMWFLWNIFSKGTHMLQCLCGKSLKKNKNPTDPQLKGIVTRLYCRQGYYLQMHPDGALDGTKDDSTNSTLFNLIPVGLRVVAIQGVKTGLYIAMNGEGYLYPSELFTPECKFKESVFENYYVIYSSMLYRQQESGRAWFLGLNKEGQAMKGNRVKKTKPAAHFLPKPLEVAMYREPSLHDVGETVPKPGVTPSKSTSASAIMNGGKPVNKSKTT
T1 sequence (Q9UQD0 1763-1976 limits assumed): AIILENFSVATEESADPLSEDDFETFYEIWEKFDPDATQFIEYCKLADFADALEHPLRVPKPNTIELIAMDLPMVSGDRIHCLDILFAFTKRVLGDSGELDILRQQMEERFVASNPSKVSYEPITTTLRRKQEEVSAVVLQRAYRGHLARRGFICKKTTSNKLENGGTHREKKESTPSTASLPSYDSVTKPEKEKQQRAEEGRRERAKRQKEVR

`O=C(NOCC1CC1)c1ccc(F)c(F)c1Nc1ccc(I)cc1Cl` [CI 1040, reference compound]: in data set [1], the “Luciferase Assay % Lum” value came out at 103.28% and the “Luciferase Assay Z-score” value is listed as 0.42. In addition, in the data set on Clone V cells, the “Toxicity Assay % Fluor” value stood at 85.93% and the “Toxicity Assay Z-score” value is on record as -1.97. The “Z-score (LCA primary screening)” value in data set [2] (30 µM, 384-well, average of primary screening (n = 2), vs on-plate 0.3% DMSO) is −4.34. Further, in data set [2], the “Split Luciferase Assay % Lum Set 1” value worked out at 50.33%, the “Split Luciferase Assay %Lum Set 2” value is recorded as 42.65%, the “Split Luciferase Assay Z-score Set 1” value was -4.01 and the “Split Luciferase Assay Z-score Set 2” value is listed as -4.67. The “Split Luciferase Assay %Lum Avg” value in data set [2] turned out to be 46.49%. Besides, the “IMin (% Luminescence)” value in data set [2] (antagonists, Clone V cells, 384-well, normalized to DMSO) amounted to 46.49 % Luminescence. Besides, the concentration for half-maximal inhibition (IC50) in data set [2] (estimated, 8-point dose response 0.25-30 µM, n = 4 per concentration, library compounds, read-out: IC50) was 14.8 µM.

As to `Cn1nnc2c(C(N)=O)ncn2c1=O` [Temozolomide], in data set [1], the “Luciferase Assay % Lum” value worked out at 99.34% and the “Luciferase Assay Z-score” value is -0.09. Also, in the data set on Clone V cells, the “Toxicity Assay % Fluor” value is reported as 84.35% and the “Toxicity Assay Z-score” value is reported as -2.19. In addition, in data set [2], the “Split Luciferase Assay % Lum Set 1” value turned out to be 106.86%, the “Split Luciferase Assay %Lum Set 2” value was determined as 109.23%, the “Split Luciferase Assay Z-score Set 1” value was found to be 0.55 and the “Split Luciferase Assay Z-score Set 2” value is 0.75. In addition, the “Split Luciferase Assay %Lum Avg” value in data set [2] was found to be 108.05%.

`CCCCCCCCCCCCCCCCCCOP(=O)([O-])OC1CC[N+](C)(C)CC1` [PERIFOSINE]: in data set [1], the “Luciferase Assay % Lum” value is on record as 103.68% and the “Luciferase Assay Z-score” value is listed as 0.47. Also, in the data set with Clone V cells, the “Toxicity Assay % Fluor” value is on record as 83.07% and the “Toxicity Assay Z-score” value is given as -2.37. In data set [2], the “Split Luciferase Assay % Lum Set 1” value came to 86.21%, the “Split Luciferase Assay %Lum Set 2” value turned out to be 89.47%, the “Split Luciferase Assay Z-score Set 1” value was -1.11 and the “Split Luciferase Assay Z-score Set 2” value is on record as -0.86. In data set [2], the “Split Luciferase Assay %Lum Avg” value is recorded as 87.84%.

For the molecule `CN(C)C/C=C/C(=O)Nc1cc2c(Nc3ccc(F)c(Cl)c3)ncnc2cc1O[C@H]1CCOC1` [BIBW2992], in data set [1], the “Luciferase Assay % Lum” value came to 76.41% and the “Luciferase Assay Z-score” value is on record as -3.02. In the data set with Clone V cells, the “Toxicity Assay % Fluor” value was found to be 100.79% and the “Toxicity Assay Z-score” value amounted to 0.11. Further, in data set [2], the “Split Luciferase Assay % Lum Set 1” value is listed as 70.99%, the “Split Luciferase Assay %Lum Set 2” value is 94.67%, the “Split Luciferase Assay Z-score Set 1” value was -2.34 and the “Split Luciferase Assay Z-score Set 2” value is listed as -0.43. Besides, the “Split Luciferase Assay %Lum Avg” value in data set [2] was found to be 82.83%.

For the molecule `Cc1ccc(Nc2nccc(N(C)c3ccc4c(C)n(C)nc4c3)n2)cc1S(N)(=O)=O` [PAZOPANIB], in data set [1], the “Luciferase Assay % Lum” value is recorded as 97.40% and the “Luciferase Assay Z-score” value is on record as -0.33. Further, in the data set with Clone V cells, the “Toxicity Assay % Fluor” value was found to be 86.91% and the “Toxicity Assay Z-score” value is -1.83. Besides, in data set [2], the “Split Luciferase Assay % Lum Set 1” value was determined as 100.34%, the “Split Luciferase Assay %Lum Set 2” value worked out at 122.76%, the “Split Luciferase Assay Z-score Set 1” value was 0.03 and the “Split Luciferase Assay Z-score Set 2” value worked out at 1.85. Also, the “Split Luciferase Assay %Lum Avg” value in data set [2] turned out to be 111.55%.

For the molecule `Nc1nc2[nH]cc(CCc3ccc(C(=O)N[C@@H](CCC(=O)O)C(=O)O)cc3)c2c(=O)[nH]1` [Pemetrexed], in data set [1], the “Luciferase Assay % Lum” value stood at 94.26% and the “Luciferase Assay Z-score” value is listed as -0.73. Moreover, in the data set with Clone V cells, the “Toxicity Assay % Fluor” value came to 94.67% and the “Toxicity Assay Z-score” value is recorded as -0.74. Also, in data set [2], the “Split Luciferase Assay % Lum Set 1” value stood at 112.30%, the “Split Luciferase Assay %Lum Set 2” value worked out at 110.27%, the “Split Luciferase Assay Z-score Set 1” value is given as 0.99 and the “Split Luciferase Assay Z-score Set 2” value came to 0.84. For the same molecule, the “Split Luciferase Assay %Lum Avg” value in data set [2] is given as 111.29%.
